{
  "source": "ChEMBL document CHEMBL5727833",
  "about": "“MALT1 inhibitors and uses thereof” (2020)",
  "data": [
    {"biological_target": "T1, Mucosa-associated lymphoid tissue lymphoma translocation protein 1 (Homo sapiens, UniProt Q9UDY8)", "T1 sequence (Q9UDY8 whole entry)": "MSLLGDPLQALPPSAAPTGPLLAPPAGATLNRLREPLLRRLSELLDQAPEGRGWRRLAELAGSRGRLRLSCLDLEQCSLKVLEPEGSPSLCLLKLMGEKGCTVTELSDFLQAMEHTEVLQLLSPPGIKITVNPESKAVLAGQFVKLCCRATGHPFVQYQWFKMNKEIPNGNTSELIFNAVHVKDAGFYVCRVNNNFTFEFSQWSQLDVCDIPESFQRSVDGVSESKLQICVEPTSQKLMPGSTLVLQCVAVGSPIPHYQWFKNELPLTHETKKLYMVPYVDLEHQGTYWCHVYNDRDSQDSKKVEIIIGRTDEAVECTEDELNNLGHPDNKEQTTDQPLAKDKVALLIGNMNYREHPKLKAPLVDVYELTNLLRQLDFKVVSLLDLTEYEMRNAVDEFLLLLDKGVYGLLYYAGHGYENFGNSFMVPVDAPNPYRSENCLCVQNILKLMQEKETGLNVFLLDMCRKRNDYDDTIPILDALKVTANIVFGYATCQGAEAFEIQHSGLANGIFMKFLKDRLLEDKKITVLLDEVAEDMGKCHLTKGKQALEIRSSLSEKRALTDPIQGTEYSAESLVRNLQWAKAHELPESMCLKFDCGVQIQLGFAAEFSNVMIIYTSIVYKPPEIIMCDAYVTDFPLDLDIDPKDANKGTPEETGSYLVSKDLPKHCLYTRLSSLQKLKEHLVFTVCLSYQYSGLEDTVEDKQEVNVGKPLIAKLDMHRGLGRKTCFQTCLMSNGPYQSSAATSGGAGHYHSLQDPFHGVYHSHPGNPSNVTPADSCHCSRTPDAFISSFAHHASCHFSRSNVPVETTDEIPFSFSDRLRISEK", "test": "Biological Assay: For exemplary compounds of the disclosure, Ki for inhibition of MALT1 was measured (Table E11). A concentration of 100 nM MALT1 was used for the assay.", "units": {"Ki": "nM"}, "values": [
      {"smiles": "N=C(N)NCCC[C@H](NC(=O)[C@@H]1C[C@@H](O)CN1C(=O)[C@@H](NC(=O)c1ccc(Br)cc1)C1CCCCC1)C(=O)CF", "Ki": 34},
      {"smiles": "CC(C)c1ccc(C(=O)N[C@H](C(=O)N2CCC[C@H]2C(=O)N[C@@H](CCCNC(=N)N)C(=O)CF)C(C)C)cc1", "Ki": 22},
      {"smiles": "N=C(N)NCCC[C@H](NC(=O)[C@@H]1CCCN1C(=O)[C@H](Cc1cccnc1)NC(=O)c1ccc(Br)cc1)C(=O)CF", "Ki": "> 1000"},
      {"smiles": "CC(C)[C@H](NS(=O)(=O)c1ccc(Br)cc1)C(=O)N1CCC[C@H]1C(=O)N[C@@H](CCCNC(=N)N)C(=O)CF", "Ki": 66},
      {"smiles": "CC(C)[C@H](NC(=O)c1ccc(Br)c(F)c1)C(=O)N1CCC[C@H]1C(=O)N[C@@H](CCCNC(=N)N)C(=O)CF", "Ki": 78},
      {"smiles": "CC(C)[C@H](NC(=O)c1ccc(Br)c(C#N)c1)C(=O)N1CCC[C@H]1C(=O)N[C@@H](CCCNC(=N)N)C(=O)CF", "Ki": 13},
      {"smiles": "CC(C)[C@H](NC(=O)Nc1ccccc1Cl)C(=O)N1CCC[C@H]1C(=O)N[C@@H](CCCNC(=N)N)C(=O)CF", "Ki": 24},
      {"smiles": "Cc1nc(C(=O)N[C@H](C(=O)N2CCC[C@H]2C(=O)N[C@@H](CCCNC(=N)N)C(=O)CF)C(C)C)cs1", "Ki": 52}
    ]}
  ]
}
